Assay results: publication PMC6792352, “Limited Chemical Structural Diversity Found to Modulate Thyroid Hormone Receptor in the Tox21 Chemical Library” (Environmental Health Perspectives, 2019)
Where a name gives a salt, the structure may show the parent alone.

Experiment: in vitro
Conditions: rat, gh3-tre-luc cells

Structure (SMILES)	CC50 at 24 h (AC50 (uM) modified / 1000)	further results
Cc1ccc(C(=O)O)o1 [5-Methyl-2-furancarboxylic acid]	> 90 µM	
OCCN1CCOCC1 [4-(2-Hydroxyethyl)morpholine]	> 90 µM	
c1c[nH]cn1 [Imidazole]	> 100 µM	
Cc1cc(Cl)ccc1N [4-Chloro-2-methylaniline hydrochloride]	> 90 µM	
C=C(C)[C@@H]1CC=C(C=O)CC1 [l-Perillaldehyde]	> 90 µM	
CCCCc1ccc2[nH]c(NC(=O)OC)nc2c1 [Parbendazole]	0.0667 µM	
COc1cc(C(C)=O)ccc1OCCCN1CCC(c2noc3cc(F)ccc23)CC1 [Iloperidone]	15.2 µM	
O=C(O)Cc1ccc(CCNS(=O)(=O)c2ccc(Cl)cc2)cc1 [Daltroban]	> 50 µM	
COc1cccc2c1[C@@H]1CN(CCCCn3c(=O)[nH]c4c(sc5ncc(-c6ccccc6)nc54)c3=O)C[C@@H]1CO2 [Fiduxosin hydrochloride]	13.1 µM	
O=C1CC[C@@H](C(=O)O)N1 [Pidolic acid]	> 50 µM	
C=C(C)C1CC=C(C)[C@@H](O)C1 (some centres unmarked) [Carveol]	> 90 µM	
CC[N+]1(C)CCCC(OC(=O)C(O)(c2ccccc2)c2ccccc2)C1 (centres unmarked) [Pipenzolate bromide]	> 50 µM	
CCCCC(=O)OCC(=O)[C@]1(O)Cc2c(O)c3c(c(O)c2[C@@H](O[C@H]2C[C@H](NC(=O)C(F)(F)F)[C@H](O)[C@H](C)O2)C1)C(=O)c1c(OC)cccc1C3=O [Valrubicin]	8.11 µM	
Clc1nc(C(Cl)(Cl)Cl)c(Cl)c(Cl)c1Cl [2,3,4,5-Tetrachloro-6-(trichloromethyl)pyridine]	22.4 µM	
Cc1ccc(C(=O)O)cc1 [4-Methylbenzoic acid]	> 90 µM	
C=CC(=O)OCC(COC(=O)C=C)(COC(=O)C=C)COC(=O)C=C [Pentaerythritol tetraacrylate]	3 µM	
CC(C)C(O)C(C)(C)CO (centres unmarked) [2,2,4-Trimethyl-1,3-pentanediol]	> 90 µM	
COc1ccc([C@@H]2Sc3ccccc3N(CCN(C)C)C(=O)[C@@H]2OC(C)=O)cc1 [(+)-Diltiazem]	22.9 µM	
CCCC1CCC(=O)O1 (centres unmarked) [1,4-Heptanolide]	> 90 µM	
OC[C@H]1O[C@@H]2O[C@H]3[C@H](O)[C@@H](O)[C@@H](O[C@H]4[C@H](O)[C@@H](O)[C@@H](O[C@H]5[C@H](O)[C@@H](O)[C@@H](O[C@H]6[C@H](O)[C@@H](O)[C@@H](O[C@H]7[C@H](O)[C@@H](O)[C@@H](O[C@H]8[C@H](O)[C@@H](O)[C@@H](O[C@H]9[C@H](O)[C@@H](O)[C@@H](O[C@H]1[C@H](O)[C@H]2O)O[C@@H]9CO)O[C@@H]8CO)O[C@@H]7CO)O[C@@H]6CO)O[C@@H]5CO)O[C@@H]4CO)O[C@@H]3CO [gamma-Cyclodextrin]	> 30 µM	
CCCCCCCCCC(=O)O[C@H]1CC[C@H]2[C@@H]3CCC4=CC(=O)CC[C@]4(C)[C@H]3CC[C@]12C [Testosterone decanoate]		CC50 at 24 h (AC50 (uM) modified / 1000, Tox21_110001=Tox21_111863, viability, 1 nM T3 present, 24 h): > 50 µM
COCC(=O)O [Methoxyacetic acid]	> 90 µM	
CN1CCC(CN2c3ccccc3Sc3ccccc32)C1 (centres unmarked) [Methdilazine hydrochloride]	8.75 µM	
Oc1cc(Cl)cc(Cl)c1 [3,5-Dichlorophenol]	> 90 µM	
Brc1c2ccccc2c(Br)c2ccccc12 [9,10-Dibromoanthracene]	> 5 µM	

Structure (SMILES)	CC50 at 24 h (AC50 (uM) modified / 1000)	further results
O=C(O)Cc1ccc(OCCNC[C@H](O)c2ccccc2)cc1 [ZD 2079]	> 50 µM	
COc1ccccc1N1CCN(CC(O)COc2cccc3ccccc23)CC1 (centres unmarked) [Naftopidil]	23.4 µM	
CC(C)(O/N=C(\C(=O)N[C@@H]1C(=O)N2C(C(=O)[O-])=C(C[n+]3ccccc3)CS[C@H]12)c1csc(N)n1)C(=O)O [Ceftazidime pentahydrate]	> 20 µM	
CC(C)(C)c1cc(CO)cc(C(C)(C)C)c1O	82.2 µM	
CCN(CC)CCOC(=O)C1(c2ccccc2)CCCC1 [Caramiphen edisylate]	43.2 µM	
O=C1c2ccccc2C(=O)C1c1ccc(Cl)cc1 [Clorindione]	> 50 µM	
CN1C(=O)c2ccc([N+](=O)[O-])cc2C1=O [N-Methyl-4-nitrophthalimide]	> 90 µM	
NC(=O)Oc1ccc(Cc2ccccc2)cc1 [Diphenan]	> 50 µM	
NC(=O)N1C(=O)/C(=C(\O)c2cccs2)c2cc(Cl)ccc21 [Tenidap]	41.8 µM	
Cc1ccc(Br)cc1 [4-Bromotoluene]	> 90 µM	
CCOP(=S)(OCC)Oc1cnc2ccccc2n1 [Quinalphos]		CC50 at 24 h (AC50 (uM) modified / 1000, Tox21_110001=Tox21_202028, viability, 1 nM T3 present, 24 h): > 90 µM
C[C@@H](O[C@H]1OCCN(Cc2n[nH]c(=O)[nH]2)[C@H]1c1ccc(F)cc1)c1cc(C(F)(F)F)cc(C(F)(F)F)c1 [Aprepitant]	11 µM	
O=C(O)c1c(Cl)ccc(Cl)c1Cl [2,3,6-Trichlorobenzoic acid]	> 90 µM	
S=C=S [Carbon disulfide]	> 90 µM	
CCCCCC#CC(=O)OC [Methyl 2-octynoate]	> 90 µM	
C[C@H](O)CN(C)C [(S)-(+)-1-Dimethylamino-2-propanol]	> 50 µM	
CCOC(=O)CC(=O)OCC [Diethyl propanedioate]	> 90 µM	
CCCCCCCCCCCCOCC1CO1 (centres unmarked) [Dodecyl glycidyl ether]	> 90 µM	
Nc1c(Cl)c(Cl)c(Cl)c(Cl)c1Cl [Pentachloroaniline]		CC50 at 24 h (AC50 (uM) modified / 1000, Tox21_110001=Tox21_400021, viability, 1 nM T3 present, 24 h): > 90 µM
C[C@]12CCC(=O)C=C1[C@@H]1C[C@@H]1[C@H]1[C@@H]3[C@@H]4C[C@@H]4[C@@]4(CCC(=O)O4)[C@@]3(C)CC[C@@H]12 [Drospirenone]	> 50 µM	
Nc1ncnc2c1ncn2[C@@H]1O[C@H](COP(=O)(O)OP(=O)(O)OP(=O)(O)O)[C@@H](O)[C@H]1O [Adenosine triphosphate]	> 50 µM	
CSc1c(Cl)c(Cl)c(Cl)c(Cl)c1Cl [Pentachlorothioanisole]	81.6 µM	
C1=Cc2ccccc2C1 [Indene]	> 90 µM	
CCCCOCC(C)OCC(C)O (centres unmarked) [1-(2-Butoxy-1-methylethoxy)propan-2-ol]	> 90 µM	
Cc1ccc(Cl)cc1N [5-Chloro-2-methylaniline]	> 90 µM	

Structure (SMILES)	CC50 at 24 h (AC50 (uM) modified / 1000)	further results
c1ccc2c(c1)-c1cccc3c1c-2cc1ccccc13 [Benzo(b)fluoranthene]	> 90 µM	
O=C(O)CCC(=O)OC[C@@H](NC(=O)C(Cl)Cl)[C@H](O)c1ccc([N+](=O)[O-])cc1 [Chloramphenicol sodium succinate]	> 50 µM	
Cc1ccc(N(C)C)cc1 [N,N,4-Trimethylaniline]	> 90 µM	
O=C(O)CCNC(=O)c1ccc(/N=N/c2ccc(O)c(C(=O)O)c2)cc1 [Balsalazide]	> 50 µM	
CC(C)C(C(=O)OC(C#N)c1cccc(Oc2ccccc2)c1)c1ccc(Cl)cc1 (centres unmarked) [Fenvalerate]	> 90 µM	
Cc1ccc(=O)n(-c2ccccc2)c1 [Pirfenidone]	> 50 µM	
O=C(O)c1cc(O)c(O)c(O)c1 [Gallic acid]	90.1 µM	
CCn1nc(C(=O)O)c(=O)c2cc3c(cc21)OCO3 [Cinoxacin]	> 20 µM	
CCCCCCOC(=O)c1ccccc1O [Hexyl salicylate]	> 90 µM	
CCCCC1C(=O)N(c2ccccc2)N(c2ccccc2)C1=O [Phenylbutazone]	> 90 µM	
CC(C)[C@@H]1CC[C@@H](C)C[C@H]1OC(=O)c1ccccc1O [Menthyl salicylate]	> 50 µM	
COc1ccc2c3c1O[C@H]1C[C@@H](O)C=C[C@@]31CCN(C)C2 [Galanthamine]	> 50 µM	
C[C@H]1c2cccc(O)c2C(=O)C2=C(O)[C@]3(O)C(=O)C(C(N)=O)=C(O)[C@@H](N(C)C)[C@@H]3[C@@H](O)[C@@H]21 [Doxycycline hydrochloride]	> 50 µM	
C1CCC2OC2C1 (centres unmarked) [Cyclohexene oxide]	> 100 µM	
N#Cc1cc(Br)c(O)c(Br)c1 [Bromoxynil]	> 90 µM	
CC(C)(O)c1ccc(C(C)(C)O)cc1 [1,4-Bis(2-hydroxy-2-propyl)benzene]	> 90 µM	
CC(=O)c1cccc([N+](=O)[O-])c1 [3-Nitroacetophenone]	> 90 µM	
COc1ccccc1[N+](=O)[O-] [1-Methoxy-2-nitrobenzene]	> 90 µM	
CC(=O)N(CC(O)CO)c1c(I)c(C(=O)NCCO)c(I)c(C(=O)NCC(O)CO)c1I (centres unmarked) [Ioxilan]	> 50 µM	
Cn1cc[n+](CCO)c1 [1-(2-Hydroxyethyl)-3-methylimidazolium chloride]	> 90 µM	
CC1(C)[C@H]2CC[C@](C)(C2)[C@H]1O [(1R)-endo-(+)-Fenchyl alcohol]	> 90 µM	
O=C(NCCCN1CCOCC1)c1ccc(Cl)cc1 [Eprobemide]	> 50 µM	
O=C(O)C(Br)(Br)Br [Tribromoacetic acid]		CC50 at 24 h (AC50 (uM) modified / 1000, Tox21_110001=Tox21_200913, viability, 1 nM T3 present, 24 h): > 90 µM
CCO[Si](CCC1CCC2OC2C1)(OCC)OCC (centres unmarked) [Triethoxy[2-(7-oxabicyclo[4.1.0]hept-3-yl)ethyl]silane]	> 90 µM	
